Data set [1] has as its target Indoleamine 2,3-dioxygenase 1 (Homo sapiens, UniProt P14902). Briefly: Inhibition of IDO1 (unknown origin) expressed in human HeLa cells. Type of data set: cell-based.
The nature of data set [2]: Metabolic stability in rat liver microsomes assessed as compound remaining at 0.5 uM incubated for 10 mins relative to control. The note with it: for remaining at 10 min, 0.5 µM: liver microsomes, read-out: Stability; for Stability: microsomes, 10 min, 0.5 µM. Type of data set: ADME, Microsome. In general terms: Microsomes from liver hold many membrane-bound enzymes, among them those of drug oxidation.

Data set [3] can be described thus: Metabolic stability in mouse liver microsomes assessed as compound remaining at 0.5 uM incubated for 10 mins relative to control. The note with it: for remaining at 10 min, 0.5 µM: liver microsomes, read-out: Stability. The format is ADME, Microsome.
The next data set concerns the target Cytochrome P450 2C9 (Homo sapiens, UniProt P11712). Kind of data set: Inhibition of CYP2C9 (unknown origin). The format is ADME.
In data set [4] the target is T1, Voltage-gated inwardly rectifying potassium channel KCNH2 (Homo sapiens, UniProt Q12809). Briefly: Inhibition of hERG. The format is toxicity. In general terms: hERG is a cardiac potassium channel; its block is linked to QT prolongation.
T1 sequence (Q12809 whole entry): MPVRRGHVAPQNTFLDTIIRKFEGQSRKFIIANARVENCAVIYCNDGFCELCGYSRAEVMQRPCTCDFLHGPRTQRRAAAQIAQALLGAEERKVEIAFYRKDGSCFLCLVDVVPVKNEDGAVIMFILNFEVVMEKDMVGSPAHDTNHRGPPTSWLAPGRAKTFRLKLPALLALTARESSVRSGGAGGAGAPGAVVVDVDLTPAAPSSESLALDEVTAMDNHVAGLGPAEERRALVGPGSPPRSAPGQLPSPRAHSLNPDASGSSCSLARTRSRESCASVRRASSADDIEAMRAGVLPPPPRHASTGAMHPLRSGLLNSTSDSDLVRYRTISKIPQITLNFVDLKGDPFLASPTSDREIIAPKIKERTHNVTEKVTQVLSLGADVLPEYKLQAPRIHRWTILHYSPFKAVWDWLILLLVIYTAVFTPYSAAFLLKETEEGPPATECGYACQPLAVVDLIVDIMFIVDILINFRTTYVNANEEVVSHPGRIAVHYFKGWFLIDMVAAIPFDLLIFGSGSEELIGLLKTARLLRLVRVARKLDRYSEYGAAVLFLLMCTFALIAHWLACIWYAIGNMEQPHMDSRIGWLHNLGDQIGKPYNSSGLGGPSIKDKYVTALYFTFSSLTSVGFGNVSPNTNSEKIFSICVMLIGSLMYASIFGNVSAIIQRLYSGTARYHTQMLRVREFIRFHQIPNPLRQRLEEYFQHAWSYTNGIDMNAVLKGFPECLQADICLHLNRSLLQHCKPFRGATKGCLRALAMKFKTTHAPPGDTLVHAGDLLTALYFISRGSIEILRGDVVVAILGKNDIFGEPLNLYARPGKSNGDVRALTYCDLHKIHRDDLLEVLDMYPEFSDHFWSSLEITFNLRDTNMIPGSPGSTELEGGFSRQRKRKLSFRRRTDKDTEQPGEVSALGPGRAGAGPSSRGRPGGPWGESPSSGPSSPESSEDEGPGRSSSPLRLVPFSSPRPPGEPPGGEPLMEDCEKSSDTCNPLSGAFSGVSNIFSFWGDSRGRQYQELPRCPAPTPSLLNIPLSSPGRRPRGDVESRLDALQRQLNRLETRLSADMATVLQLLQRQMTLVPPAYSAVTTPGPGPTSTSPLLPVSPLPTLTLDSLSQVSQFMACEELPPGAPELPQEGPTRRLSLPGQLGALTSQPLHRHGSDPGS
Data set [5] in a line: Metabolic stability in human liver microsomes assessed as compound remaining at 0.5 uM incubated for 10 mins relative to control. Type of data set: ADME, Microsome. The note with it: for remaining at 10 min, 0.5 µM: liver microsomes, read-out: Stability.
The target of data set [6] is T2, Nuclear receptor subfamily 1 group I member 2 (Homo sapiens, UniProt O75469).
T2 sequence (O75469 whole entry): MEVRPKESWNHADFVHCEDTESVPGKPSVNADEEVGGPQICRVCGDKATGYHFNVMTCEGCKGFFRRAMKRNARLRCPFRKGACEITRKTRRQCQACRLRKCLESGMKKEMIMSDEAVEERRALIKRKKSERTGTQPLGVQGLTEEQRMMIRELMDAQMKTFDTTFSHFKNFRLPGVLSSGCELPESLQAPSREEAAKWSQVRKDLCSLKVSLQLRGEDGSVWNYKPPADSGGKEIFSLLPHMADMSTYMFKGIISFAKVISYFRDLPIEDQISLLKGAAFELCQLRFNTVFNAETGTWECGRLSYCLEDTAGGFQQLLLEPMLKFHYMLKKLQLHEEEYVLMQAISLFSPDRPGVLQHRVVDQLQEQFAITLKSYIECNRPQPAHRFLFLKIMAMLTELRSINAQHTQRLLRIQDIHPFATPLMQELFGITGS
Briefly: Transactivation of PXR (unknown origin). Type of data set: toxicity.

Data set [7] has as its target Tryptophan 2,3-dioxygenase (Homo sapiens, UniProt P48775). Kind of data set: Inhibition of TDO (unknown origin) expressed in HEK cells. Type of data set: cell-based.
Another data set has as its target T3, Cytochrome P450 2C8 (Homo sapiens, UniProt P10632).
T3 sequence (P10632 whole entry): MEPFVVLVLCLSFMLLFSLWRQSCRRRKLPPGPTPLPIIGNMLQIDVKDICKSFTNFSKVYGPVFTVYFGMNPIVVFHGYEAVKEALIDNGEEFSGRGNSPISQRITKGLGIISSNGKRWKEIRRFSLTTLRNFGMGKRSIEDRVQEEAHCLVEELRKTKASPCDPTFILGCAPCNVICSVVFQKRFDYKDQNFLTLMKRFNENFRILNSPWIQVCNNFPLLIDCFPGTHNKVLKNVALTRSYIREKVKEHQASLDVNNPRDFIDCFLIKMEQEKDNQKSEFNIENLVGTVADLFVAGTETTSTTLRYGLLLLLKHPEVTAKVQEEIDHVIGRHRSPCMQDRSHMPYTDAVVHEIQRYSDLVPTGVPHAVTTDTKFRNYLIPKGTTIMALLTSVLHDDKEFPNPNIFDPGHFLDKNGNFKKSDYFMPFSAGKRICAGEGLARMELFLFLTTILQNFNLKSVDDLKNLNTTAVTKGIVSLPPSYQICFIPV
Briefly: Inhibition of CYP2C8 (unknown origin). Type of data set: ADME.

The next data set addresses Cytochrome P450 2C19 (Homo sapiens, UniProt P33261). Briefly: Inhibition of CYP2C19 (unknown origin). Type of data set: ADME.
The target in a further data set is hERG (Homo sapiens, UniProt Q12809). Briefly: (§1) Inhibition of hERG at 10 uM relative to control. Type of data set: toxicity.
hERG, sequence (Q12809 whole entry): as the sequence (Q12809 whole entry) above
The target in data set [8] is T1, Voltage-gated inwardly rectifying potassium channel KCNH2. The description is as §1. Type of data set: toxicity. The note with it: 10 µM.

Tryptophan 2,3-dioxygenase, sequence (P48775 whole entry): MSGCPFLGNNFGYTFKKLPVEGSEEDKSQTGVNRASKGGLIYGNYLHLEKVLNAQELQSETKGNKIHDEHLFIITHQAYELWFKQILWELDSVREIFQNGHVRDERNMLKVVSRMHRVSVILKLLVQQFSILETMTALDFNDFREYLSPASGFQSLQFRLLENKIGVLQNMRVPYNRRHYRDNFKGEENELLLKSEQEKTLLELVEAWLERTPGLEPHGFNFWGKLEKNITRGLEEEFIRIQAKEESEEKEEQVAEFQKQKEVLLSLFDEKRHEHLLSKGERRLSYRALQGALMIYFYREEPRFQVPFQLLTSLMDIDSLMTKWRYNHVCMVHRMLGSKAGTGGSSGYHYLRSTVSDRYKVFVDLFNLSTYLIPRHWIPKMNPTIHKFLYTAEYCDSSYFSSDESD
Indoleamine 2,3-dioxygenase 1, sequence (P14902 whole entry): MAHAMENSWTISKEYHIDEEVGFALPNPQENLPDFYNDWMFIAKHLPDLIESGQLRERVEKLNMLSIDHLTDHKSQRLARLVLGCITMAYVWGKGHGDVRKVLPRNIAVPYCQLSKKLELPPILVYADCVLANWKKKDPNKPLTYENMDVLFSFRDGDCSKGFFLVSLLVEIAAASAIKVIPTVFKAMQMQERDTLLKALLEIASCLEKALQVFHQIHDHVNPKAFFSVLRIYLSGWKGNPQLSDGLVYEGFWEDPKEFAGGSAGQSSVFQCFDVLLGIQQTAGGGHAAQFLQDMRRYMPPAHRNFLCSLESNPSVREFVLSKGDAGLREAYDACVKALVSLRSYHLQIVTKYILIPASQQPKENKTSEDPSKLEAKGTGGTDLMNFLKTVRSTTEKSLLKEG
Cytochrome P450 2C9, sequence (P11712 whole entry): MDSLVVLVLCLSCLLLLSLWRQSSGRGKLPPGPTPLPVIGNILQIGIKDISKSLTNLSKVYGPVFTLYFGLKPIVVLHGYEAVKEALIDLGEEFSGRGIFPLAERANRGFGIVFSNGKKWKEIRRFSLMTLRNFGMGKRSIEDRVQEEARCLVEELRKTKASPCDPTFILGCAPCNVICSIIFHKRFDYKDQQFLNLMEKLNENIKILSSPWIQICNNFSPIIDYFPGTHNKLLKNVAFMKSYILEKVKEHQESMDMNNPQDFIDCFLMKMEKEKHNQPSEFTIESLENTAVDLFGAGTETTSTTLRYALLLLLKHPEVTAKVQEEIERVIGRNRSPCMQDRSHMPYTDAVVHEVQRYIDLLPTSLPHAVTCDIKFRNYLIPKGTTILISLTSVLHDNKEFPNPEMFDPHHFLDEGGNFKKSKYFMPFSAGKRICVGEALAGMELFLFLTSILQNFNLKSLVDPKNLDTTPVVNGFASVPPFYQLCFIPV
Cytochrome P450 2C19, sequence (P33261 whole entry): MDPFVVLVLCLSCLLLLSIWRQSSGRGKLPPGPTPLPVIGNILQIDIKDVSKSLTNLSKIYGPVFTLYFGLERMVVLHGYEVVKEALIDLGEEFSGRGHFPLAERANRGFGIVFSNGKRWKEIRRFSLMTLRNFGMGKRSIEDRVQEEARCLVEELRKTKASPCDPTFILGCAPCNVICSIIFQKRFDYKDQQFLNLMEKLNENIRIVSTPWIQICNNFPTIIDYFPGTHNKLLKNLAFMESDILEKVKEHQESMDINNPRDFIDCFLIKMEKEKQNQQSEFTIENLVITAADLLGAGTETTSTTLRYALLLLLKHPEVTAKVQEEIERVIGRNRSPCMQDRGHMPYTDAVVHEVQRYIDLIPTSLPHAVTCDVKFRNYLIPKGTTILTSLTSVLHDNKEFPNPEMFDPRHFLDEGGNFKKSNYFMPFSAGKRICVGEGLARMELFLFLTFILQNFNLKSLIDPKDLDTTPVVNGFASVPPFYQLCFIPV

Broadly, the IC50 is the point on the concentration scale where inhibition reaches its midpoint. Read a low IC50 as greater potency in that assay. In turn, `COc1ccc(-c2ccc(OC(C(C)C)C(C)C)c(NC(=O)Nc3ccc(C)cc3)c2)cc1C(=O)O` yielded an IC50 in [1] of 1600 nM.
Regarding `CCCC(CCC)Oc1ccc(-c2ccccc2-c2nn[nH]n2)cc1NC(=O)Nc1ccc(C)cc1`, the remaining at 10 min, 0.5 µM in [2] was determined as 76%; in data set [3], 47%; in [5] it was 62%. The IC50 in [1] was 25 nM; on Cytochrome P450 2C9 it was 1800 nM; in data set [4] it was > 80000 nM.
The EC50 is the midpoint of the concentration-response curve. Read a low EC50 as a more potent agent. Take `CCCOc1c(CCC)cc(-c2ccccc2-c2nn[nH]n2)cc1NC(=O)Nc1ccc(C)cc1`: the remaining at 10 min, 0.5 µM came to 86% in data set [2], 68% in [3] and 82% in [5]. In data set [6], the EC50 is > 9000 nM. Moreover, the half-inhibitory concentration (IC50) was 31 nM in data set [1], 6200 nM on Cytochrome P450 2C9 and 40000 nM in data set [4].
On to `CC(C)CN(CC(C)C)c1ccc(-c2ccccc2C(=O)O)cc1NC(=O)Nc1ccccc1F`, for which the remaining at 10 min, 0.5 µM in data set [2] stood at 72%; in [3] it was 81%; in data set [5] it was 75%. For the same compound, the IC50 in data set [1] worked out at 13 nM; against Cytochrome P450 2C9 it was 5100 nM.
Take `C=CC1(C=C)Oc2c(NC(=O)Nc3ccc(C)cc3)cc(-c3ccccc3-c3nn[nH]n3)cc2[C@@H]1c1ccccc1`: the remaining at 10 min, 0.5 µM in [2] was 86%; in data set [3], 77%; in [5], 94%. The half-inhibitory concentration (IC50) in [1] is 3.4 nM; in data set [7], > 7500 nM; at Cytochrome P450 2C8, 270 nM; in data set [4] it was > 80000 nM.
Turning to `Cc1ccc(NC(=O)Nc2cc(-c3ccccc3-c3nn[nH]n3)cc3c2O[C@@H](C)C/C=C\[C@H]3c2ccccc2)cc1`, the remaining at 10 min, 0.5 µM was 61% in [2], 76% in data set [3] and 94% in data set [5]. For the same compound, the concentration for half-maximal inhibition (IC50) worked out at 12 nM in data set [1] and 1900 nM against Cytochrome P450 2C8.
As to `COc1ccc(-c2ccc(Oc3ccccc3C(C)(C)C)c(NC(=O)Nc3ccccc3F)c2)cc1C(=O)O`, the remaining at 10 min, 0.5 µM in data set [2] was found to be 100%; in data set [3] it was 61%; in data set [5], 100%. Besides, the half-maximal inhibitory concentration (IC50) was > 7500 nM in data set [7] and 5100 nM at Cytochrome P450 2C8.
Turning to `Cc1ccc(NC(=O)Nc2cc(-c3ccccc3-c3nn[nH]n3)ccc2OC(C(C)C)C(C)C)cc1`, the results for the remaining at 10 min, 0.5 µM in data set [2], in data set [3] and in [5] were 48%, 2% and 41%, respectively. Also, the concentration for half-maximal inhibition (IC50) came out at 1400 nM at Cytochrome P450 2C9 and 18000 nM in data set [4].
As for `Cc1ccc(NC(=O)Nc2cc(-c3ccccc3-c3nn[nH]n3)cc3c2O[C@@H](C)CCC[C@H]3c2ccccc2)cc1`, the remaining at 10 min, 0.5 µM came to 74% in data set [2], 66% in data set [3] and 100% in data set [5]. The figures for the IC50 (in data set [1]; against Cytochrome P450 2C8) were 25 nM and 3200 nM, respectively.
`CCCOc1c(CCC)cc(-c2ccccc2C(=O)O)cc1NC(=O)Nc1ccc(C)cc1`: the figures for the remaining at 10 min, 0.5 µM in data set [2], in data set [3] and in data set [5] were 85%, 82% and 100%, respectively. For the same compound, the half-maximal effective concentration (EC50) in data set [6] was > 20000 nM. The 50% inhibitory concentration (IC50) against Cytochrome P450 2C9 was 14000 nM; in [4], > 80000 nM.
Consider `C=C[C@@H]1Oc2c(NC(=O)Nc3ccc(C)cc3)cc(-c3ccccc3-c3nn[nH]n3)cc2[C@@H]1c1ccccc1` (racemic), for which the remaining at 10 min, 0.5 µM in data set [2] is 77%; in data set [3], 57%; in [5], 82%. Further, the IC50 came out at 5.9 nM in data set [1] and 970 nM against Cytochrome P450 2C9.
For `Cc1ccc(NC(=O)Nc2cc(-c3ccccc3-c3nn[nH]n3)cc3c2OCC=CC3c2ccccc2)cc1` (racemic), the values for the remaining at 10 min, 0.5 µM in data set [2], in data set [3] and in [5] were 66%, 68% and 69%, respectively. Further, the 50% inhibitory concentration (IC50) amounted to 11 nM in data set [1], 2800 nM on Cytochrome P450 2C9 and 69000 nM in [4].
Turning to `C=C[C@H]1Oc2c(NC(=O)Nc3ccc(C)cc3)cc(-c3ccccc3-c3nnn[nH]3)cc2[C@@H]1c1ccccc1` (racemic), the remaining at 10 min, 0.5 µM stood at 88% in data set [2], 75% in data set [3] and 78% in [5]. For the same compound, the half-maximal inhibitory concentration (IC50) is 12 nM in data set [1], > 7500 nM in [7] and 1000 nM against Cytochrome P450 2C8.
With `COc1ccc(-c2ccc(O[C@@H]3CCCC[C@H]3C)c(NC(=O)Nc3ccc(C)cc3)c2)cc1C(=O)O` (racemic), the IC50 in [1] is > 1000 nM.
Same read-out and setting: under `Cc1ccc(NC(=O)Nc2cc(-c3ccccc3C(=O)O)ccc2O[C@@H]2CCCC[C@H]2C)cc1` (racemic) stands 240 nM.
Regarding `Cc1ccc(NC(=O)Nc2cc(-c3ccccc3-c3nn[nH]n3)cc3c2OC(C)(C)[C@H]3c2ccccc2)cc1` (racemic), the remaining at 10 min, 0.5 µM stood at 73% in [2], 42% in [3] and 52% in [5]. Besides, the half-inhibitory concentration (IC50) in [1] was 6.3 nM; at Cytochrome P450 2C19, 420 nM.
The term inhibition denotes the share of the control response that was lost under treatment. A high value points to a response far below the control. As to `Cc1ccc(NC(=O)Nc2cc(-c3ccccc3-c3nc(=O)[nH]o3)cc3c2OCCCC3c2ccccc2)cc1` (stereo in doubt; 19), in [2], the Stability was determined as 61%. The results for the remaining at 10 min, 0.5 µM in data set [3] and in data set [5] were 56% and 72%, respectively. For the same compound, the IC50 in data set [1] was 1.5 nM; in [7], > 6000 nM; against Cytochrome P450 2C19 it was 1200 nM. On hERG, this compound displayed an inhibition at 10 µM of 12%.
With `Cc1ccc(NC(=O)Nc2cc(-c3ccccc3-c3nn[nH]n3)cc3c2OCCCC3c2ccccc2)cc1` (stereo in doubt; 22), the Stability turned out to be 96% in [2]; 100% in data set [3] (microsomes, 10 min, 0.5 µM); 72% in data set [5] (microsomes, 10 min, 0.5 µM). In addition, the IC50 was 15 nM in data set [1], > 6000 nM in data set [7] (hek) and 6800 nM at Cytochrome P450 2C9. Besides, in [8], the “inhibition (INH)” value was 53%.

For the origin of these results see ChEMBL document CHEMBL5257092, “Synthesis and biological evaluation of biaryl alkyl ethers as inhibitors of IDO1” (Bioorg Med Chem Lett, 2023).
